In US7476692B2, “Pharmaceutical compositions of safingol and methods of using the same” (priority 2003, dated 2009):
≈ marks a conversion by molar mass, not a printed value.

Columns and labels:
Fisher rats = conditions: Group III: 4-HPR 61 mg/kg/d D1-5 continuous iv, safingol 0; 3 male rats
[1] = Solubility/miscibility studies of safingol in solvent systems
Method: (§1) The following solubility/miscibility studies were performed with safingol at various concentrations.

protein kinase C (PKC) = conditions: variously reported; acting at the regulatory subunit of PKCs; cited from earlier work
sphingosine kinase = conditions: variously reported in the literature; cited from earlier work

Method for physchem: as §1

CC1=C(/C=C/C(C)=C/C=C/C(C)=C/C(=O)Nc2ccc(O)cc2)C(C)(C)CCC1 [4-HPR, fenretinide]
Toxicity: din path (Fisher rats): din path: normal | Toxicity: dinical signs (Fisher rats): dinical signs: normal | Toxicity: necropsy: discoloration(lung) (Fisher rats): 3/3 | Toxicity: necropsy: emaciation (Fisher rats): 1/3

CCCCCCCCCCCCCCC[C@H](O)[C@@H](N)CO [Safingol, (2S,3S)-2-amino-1,3-octadecanediol]
Precipitate at 2° C. to 8° C. ([1]; 50:50 Ethanol:WFI with lactic acid): precipitate formation | Solubility (Result) ([1]; Castor oil): not soluble | Solubility (Result) ([1]; Citric acid/WFI): not soluble | Solubility (Result) ([1]; DMSO): not soluble | Solubility (Result) ([1]; HC1/WFI): not soluble | Solubility (Result) ([1]; HCl/Ethanol): not soluble | Precipitate at 2° C. to 8° C. ([1]; Lactic acid in 2% EPL in WFI): no precipitate | Solubility (Result) ([1]; Lactic acid in 2% EPL in WFI): solubility similar to lactic without EPL | Precipitate at 2° C. to 8° C. ([1]; Lactic acid/Ethanol): precipitate formation | Precipitate at 2° C. to 8° C. ([1]; Lactic acid/WFI): precipitate formation | Solubility (Result) ([1]; Maleic acid/WFI): not soluble | Solubility (Result) ([1]; Malic acid/WFI): not soluble | Solubility (Result) ([1]; Methanesulfonic acid/Ethanol): not soluble | Solubility (Result) ([1]; Methanesulfonic acid/WFI): not soluble, but the appearance of the safingol changed, | Solubility (Result) ([1]; Neobee oil): Not soluble | Temperature at which later found to be soluble ([1]; Neobee oil): ~80 °C | Solubility (Result) ([1]; Pluronic F-68/WFI): not soluble | Precipitate at 2° C. to 8° C. ([1]; Propionic acid/WFI): precipitate formation | Solubility (Result) ([1]; Safflower oil, attempted: 0.5 mg/mL): Not soluble (attempted: 0.5 mg/mL) | Solubility (Result) ([1]; Sesame oil, attempted: 0.5 mg/mL): Not soluble (attempted: 0.5 mg/mL) | Solubility (Result) ([1]; Sodium Lactate/WFI): not soluble | Solubility (Result) ([1]; Soybean oil): Not soluble | Temperature at which later found to be soluble ([1]; Soybean oil): ~80 °C | Solubility (Result) ([1]; Tartaric acid/WFI): not soluble | Solubility (Result) ([1]; Tricaprylin, attempted: 0.5 mg/mL): Not soluble (attempted: 0.5 mg/mL) | Solubility (Result) ([1]; Tween-80): not soluble | Solubility (Result) ([1]; Valium solvent, attempted: 0.5 mg/mL): Not soluble (attempted: 0.5 mg/mL) | Solubility (Result) ([1]; Vitamin E (α-tocopherol)): not soluble | Precipitates on chilling, versus non-ethanol-containing solutions ([1]; ethanol-containing safingol/lactic acid solutions chilled to 2-8° C., then warmed to room temperature): reduced in quantity and dissolved much more readily | Effect of ethanol on solubility of safingol ([1]; lactic acid/water solutions): substantially increased | Inhibition of protein kinase C (PKC), including PKCζ (protein kinase C (PKC)): inhibitor | Inhibition of sphingosine kinase (sphingosine kinase): inhibitor | solubility (physchem; 50:50 ethanol:WFI with lactic acid, aqueous with cosolvent or surfactant or cyclodextrin): ~50000 µg/mL (≈ 166 mM) | solubility (physchem; 60:40 t-BuOH/WFI, aqueous with cosolvent or surfactant or cyclodextrin): 15700 µg/mL (≈ 52 mM) | solubility (physchem; DMAC, organic solvent or mixture): 6600 to 7400 µg/mL (≈ 21.9 to 24.5 mM) | solubility (physchem; Diluent 12, organic solvent or mixture): 7220 µg/mL (≈ 23.9 mM) | solubility (physchem; PEG 300, organic solvent or mixture): 1010 to 1060 µg/mL (≈ 3.35 to 3.52 mM) | solubility (physchem; ethanol, organic solvent or mixture): 7500 to 8200 µg/mL (≈ 24.9 to 27.2 mM) | solubility (physchem; lactic acid in WFI with 5 mg/mL mannitol, aqueous buffer): 10000 µg/mL (≈ 33.2 mM) | solubility (physchem; lactic acid/WFI, aqueous buffer): > 10000 µg/mL | solubility (physchem; lactic acid/ethanol, organic solvent or mixture): ~20000 µg/mL (≈ 66.3 mM) | solubility (physchem; propionic acid/WFI, aqueous buffer): ≥ 5000 µg/mL | solubility (physchem; propylene glycol, organic solvent or mixture): 1060 to 1350 µg/mL (≈ 3.52 to 4.48 mM) | solubility (physchem; t-butanol, organic solvent or mixture): > 25000 µg/mL
